From US10251835B2, “Cranial delivery of pharmaceuticals” (GLIA, LLC, priority 2013, dated 2019)
“Also recorded” adds a separate entry of the source.

Key:
Assay type in all cases: in vivo, human
[1] = test system: subject with left-side trigeminal neuralgia and facial droop; test: Treatment of trigeminal neuralgia and facial palsy; details: progesterone 1% (1 mg) four times daily to forehead followed by 0.15 g ganciclovir (0.15% formulation) up to five times daily
Description: A subject presented with left-side trigeminal neuralgia and left side facial droop of 10 years duration. Therapy was initiated by topically applying progesterone (1% by weight) equivalent to 1 mg four times daily to the patient's forehead. This was followed by application of 0.15 g ganciclovir (as a 0.15% by weight formulation) up to five times daily.

[2] = test system: patients with dyslexia; test: Treatment of dyslexia and impaired executive brain function exacerbated by traumatic brain injury; details: person
Description: A patient had been diagnosed in childhood with dyslexia. Symptoms included unstable binocular fixation while reading, the inability without compensating to find the end of one line and beginning of the next, and double overlapping perception of lines of print. They were also unable to read aloud in a fluid manner.
The individual applied a topical gel containing 4% by weight progesterone (4 mg of drug) to the forehead area.
The application was repeated twice over the next few days and the patient tested themself by reading text.
Regular treatment was continued for 10 weeks with the 4% progesterone gel applied to the forehead twice daily. The patient reported that in living with dyslexia for 52 years, they had never experienced as much stress relief in their visual system after the treatment.
After 8 weeks of treatment, the individual was asked to read aloud a complex paragraph of 8 sentences from their computer screen.
Treatment was interrupted after 10 weeks to determine the duration of benefit.
Seven years prior to initiation of progesterone topical treatment, the patient had suffered traumatic brain injury (TBI) in an auto accident. They reported exacerbation of their vision problems as a result of the accident.
After the crash they suffered from post-traumatic stress disorder triggered by loud sounds. The patient could not even listen to music because it would induce nausea. Two months after initiation of the progesterone treatment, they regained a good deal of social conformability, improved their ability to organize thoughts, eliminated their disjointed thinking, and gained the ability to write coherently.
A person who had been diagnosed with severe reading problems in third grade was later recognized as having dyslexia. Their reading problems became exacerbated by an automobile accident in 1980, following six months of coma. In general reading was a chore. However they made a concerted effort to learn to read, starting with children's books, and is now able to read regular print. Reading issues were exemplified by the need to place a ruler below each line so that they can follow the line and find the next line, and seeing letters backwards. They are not able to read small print at all. About 4 years ago their vision became worse. They were prescribed glasses that they use during periods when vision is worse than usual, whether near, intermediate, or far in distance.
A 1% progesterone topical composition was applied to forehead. […] The effect lasted from the time of application, around 7:30 pm to bedtime at around 11 pm.

[3] = test system: person with blepharospasm; test: Treatment of blepharospasm; details: fourteen days of 1% progesterone gel to forehead; before treatment 73
From the text: Upon ophthalmic re-examination following fourteen days of 1% progesterone gel applied topically to the forehead, the blink rate had decreased to 18 times per minute.

[4] = 1% progesterone topical composition to forehead

Structure (SMILES): CC(=O)[C@H]1CC[C@H]2[C@@H]3CCC4=CC(=O)CC[C@]4(C)[C@H]3CC[C@]12C [progesterone]
- facial muscles contracted for 10 years [1]: relaxation of facial muscles
- reading and vision (patient report) [2, 4]: able to read without using; also recorded: distance vision also improved; also recorded: no longer bothered by the headlight glare; also recorded: Reapplication next morning restored vision improvements
- time until they could feel a clearing in their head [2, 4]: About 5 minutes
- reading ability and visual system (patient report) ([2]; 4% progesterone gel to forehead, single applications then twice daily up to 10 weeks): effect lasting for hours; also recorded: slightly better and easier reading and line tracking; also recorded: lasted for about four hours; also recorded: able to track from one end of a line of text to the beginning of the next line without using a ruler; also recorded: read aloud with less choppiness; also recorded: accurate and fluid with only one word lapse
- executive function and stress after traumatic brain injury ([2]; 4% progesterone gel to forehead, two months): improved executive function; also recorded: much lower level of stress; also recorded: ability to do simple math in their head
- time until eyes relaxed into alignment ([2]; gel 4% progesterone (4 mg) to forehead): ≤ 60 s
- duration of benefit after interruption ([2]; ten days after stopping 10 weeks of 4% progesterone gel): continued benefit with only slight degradation
- blink rate [3]: 18 times per minute
